Experimental data reported in patent publication US10813944B2, “Cyclodextrins as procoagulants” (STICHTING SANQUIN BLOEDVOORZIENING, priority 2016, dated 2020).

Legend:
[1] = tested on: thrombin generation in pooled normal plasma; test: Calibrated Automated Thrombogram thrombin generation assay in pooled normal plasma; assay type: biochemical, human; settings: for procoagulant effect in normal plasma: no anticoagulant, cyclodextrin 100 μM unless otherwise indicated, 1 pM TF; for procoagulant activity (overview): pooled normal plasma with and without the addition of anticoagulants; for lag time / peak thrombin: normal plasma, versus absence of cyclodextrin
Method: (§1) FIGS. 3-8, 12, 14-19 and 22-27: Pooled normal plasma was spiked with cyclodextrins (100 μM, unless otherwise indicated) and anticoagulants. The concentrations of the anticoagulants were 100 ng/ml for dabigatran (A), 100 ng/ml for rivaroxaban (B), 60 ng/ml for apixaban (C), 60 ng/ml for edoxaban (D). The plasmas were subjected to thrombin generation analysis as described in the Materials and Methods section with 1 pM tissue factor (TF) as initiator of coagulation.
(§2) The Calibrated Automated Thrombogram® assays the generation of thrombin in clotting plasma using a microtiter plate reading fluorometer (Fluoroskan Ascent, ThermoLab systems, Helsinki, Finland) and Thrombinoscope® software (Thrombinoscope BV, Maastricht, The Netherlands). The assay was carried out as described by Hemker et al. (Pathofysiol. IIaemost. Thromb. 2003, 33, 4-15), and the Thrombinoscope® manual. Coagulation was triggered by recalcification in the presence of 1 or 5 pM recombinant human tissue factor (Innovin®, Siemens, Marburg, Germany), 4 μM phospholipids, and 417 μM fluorogenic substrate Z-Gly-Gly-Arg-AMC (Bachem, Bubendorf, Switzerland). Fluorescence was monitored using the Fluoroskan Ascent fluorometer (ThermoLabsystems, Helsinki, Finland), and the lag time, peak thrombin, velocity index and area under the curve (ETP) were calculated using the Thrombinoscope® software (Thrombinoscope BV).
Thrombin generation analyses were performed in pooled normal plasma with and without the addition of anticoagulants.

[2] = tested on: thrombin generation in pooled normal plasma spiked with anticoagulants; test: Thrombin generation assay in pooled normal plasma spiked with anticoagulants; assay type: biochemical, human; settings: for effect on the anticoagulant effect of apixaban: apixaban 60 ng/ml; for effect on the anticoagulant effect of apixaban / effect on the anticoagulant effect of dabigatran / effect on the anticoagulant effect of edoxaban / effect on the anticoagulant effect of rivaroxaban: cyclodextrin 100 μM, 1 pM TF; for effect on the anticoagulant effect of dabigatran: dabigatran 100 ng/ml; for effect on the anticoagulant effect of edoxaban: edoxaban 60 ng/ml; for effect on the anticoagulant effect of rivaroxaban: rivaroxaban 100 ng/ml
Method: as §1
FIG. 9: Pooled normal plasma was spiked with OKL-1111 (100 μM, unless otherwise indicated (A)) and anticoagulants (B-E). The concentrations of the anticoagulants were 100 ng/ml for dabigatran (B), 100 ng/ml for rivaroxaban (C), 60 ng/ml for apixaban (D), 60 ng/ml for edoxaban (E). The plasmas were subjected to thrombin generation analysis as described in the Materials and Methods section with 1 pM tissue factor (TF) as initiator of coagulation.
FIG. 10: Pooled normal plasma was spiked with OKL-1111 (100 μM) and anticoagulants (A-F). The concentrations of the anticoagulants were 2 μg/ml for fondaparinux (A), 0.4 U/ml for nadroparin (B), 0.1 U/ml for tinzaparin (C), 0.03 U/ml for unfractionated heparin (UFH) (D), 0.5 U/ml for hirudin (E) and 10 μg/ml for bivalirudin (F). The plasmas were subjected to thrombin generation analysis as described in the Materials and Methods section with 1 pM tissue factor (TF) as initiator of coagulation.
as §2

Row | SMILES | procoagulant effect in normal plasma [1] | procoagulant activity (overview) [1] | procoagulant effect in plasma containing anticoagulants (not specified / NOACs) [2] | effect on the anticoagulant effect of apixaban [2] | effect on the anticoagulant effect of dabigatran [2] | effect on the anticoagulant effect of edoxaban [2] | effect on the anticoagulant effect of rivaroxaban [2] | lag time [1] | peak thrombin [1]
1 | O=C(O)CCSCC1OC2OC3C(CO)OC(OC4C(CO)OC(OC5C(CO)OC(OC6C(CO)OC(OC7C(CO)OC(OC8C(CO)OC(OC1C(O)C2O)C(O)C8O)C(O)C7O)C(O)C6O)C(O)C5O)C(O)C4O)C(O)C3O (centres unmarked) [OKL-1100, reference compound] | did not show procoagulant activity | No | did not show procoagulant activity |  |  |  |  |  | 
2 | O=C(O)CCSCC1OC2OC3C(CSCCC(=O)O)OC(OC4C(CSCCC(=O)O)OC(OC5C(CSCCC(=O)O)OC(OC6C(CSCCC(=O)O)OC(OC7C(CSCCC(=O)O)OC(OC8C(CSCCC(=O)O)OC(OC1C(O)C2O)C(O)C8O)C(O)C7O)C(O)C6O)C(O)C5O)C(O)C4O)C(O)C3O (centres unmarked) [OKL-1101, reference compound] | did not show procoagulant activity | No | did not show procoagulant activity |  |  |  |  |  | 
3 | O=C(O)CCSCC1OC2OC3C(CO)OC(OC4C(CO)OC(OC5C(CO)OC(OC6C(CO)OC(OC7C(CO)OC(OC8C(CO)OC(OC9C(CO)OC(OC1C(O)C2O)C(O)C9O)C(O)C8O)C(O)C7O)C(O)C6O)C(O)C5O)C(O)C4O)C(O)C3O (centres unmarked) [OKL-1102, reference compound] | did not show procoagulant activity | No | did not show procoagulant activity |  |  |  |  |  | 
4 | O=C(O)CCSCC1OC2OC3C(CSCCC(=O)O)OC(OC4C(CSCCC(=O)O)OC(OC5C(CSCCC(=O)O)OC(OC6C(CSCCC(=O)O)OC(OC7C(CSCCC(=O)O)OC(OC8C(CSCCC(=O)O)OC(OC9C(CSCCC(=O)O)OC(OC1C(O)C2O)C(O)C9O)C(O)C8O)C(O)C7O)C(O)C6O)C(O)C5O)C(O)C4O)C(O)C3O (centres unmarked) [OKL-1103, reference compound] | did not show procoagulant activity | No | did not show procoagulant activity |  |  |  |  |  | 
5 | O=C(O)CCCSCC1OC2OC3C(CSCCCC(=O)O)OC(OC4C(CSCCCC(=O)O)OC(OC5C(CSCCCC(=O)O)OC(OC6C(CSCCCC(=O)O)OC(OC7C(CSCCCC(=O)O)OC(OC8C(CSCCCC(=O)O)OC(OC1C(O)C2O)C(O)C8O)C(O)C7O)C(O)C6O)C(O)C5O)C(O)C4O)C(O)C3O (centres unmarked) [OKL-1105] | significant procoagulant effect |  |  | procoagulant effects were observed | procoagulant effects were observed | procoagulant effects were observed | procoagulant effects were observed |  | 
6 | O=C(O)CCCSCC1OC2OC3C(CO)OC(OC4C(CO)OC(OC5C(CO)OC(OC6C(CO)OC(OC7C(CO)OC(OC8C(CO)OC(OC9C(CO)OC(OC1C(O)C2O)C(O)C9O)C(O)C8O)C(O)C7O)C(O)C6O)C(O)C5O)C(O)C4O)C(O)C3O (centres unmarked) [OKL-1106] | procoagulant effect |  |  | less pronounced | significantly antagonized | less pronounced | significantly antagonized |  | 
7 | O=C(O)CCCSCC1OC2OC3C(CSCCCC(=O)O)OC(OC4C(CSCCCC(=O)O)OC(OC5C(CSCCCC(=O)O)OC(OC6C(CSCCCC(=O)O)OC(OC7C(CSCCCC(=O)O)OC(OC8C(CSCCCC(=O)O)OC(OC9C(CSCCCC(=O)O)OC(OC1C(O)C2O)C(O)C9O)C(O)C8O)C(O)C7O)C(O)C6O)C(O)C5O)C(O)C4O)C(O)C3O (centres unmarked) [OKL-1107] | strong procoagulant effects |  |  | completely restored or even higher than in the non-anticoagulated plasma | completely restored or even higher than in the non-anticoagulated plasma | completely restored or even higher than in the non-anticoagulated plasma | completely restored or even higher than in the non-anticoagulated plasma | considerably shorter | largely increased
8 | O=C(O)CCCCCSCC1OC2OC3C(CO)OC(OC4C(CO)OC(OC5C(CO)OC(OC6C(CO)OC(OC7C(CO)OC(OC8C(CO)OC(OC1C(O)C2O)C(O)C8O)C(O)C7O)C(O)C6O)C(O)C5O)C(O)C4O)C(O)C3O (centres unmarked) [OKL-1108] | substantial procoagulant effect |  |  | antagonized | antagonized | antagonized | antagonized |  | 
9 | O=C(O)CCCCCSCC1OC2OC3C(CSCCCCCC(=O)O)OC(OC4C(CSCCCCCC(=O)O)OC(OC5C(CSCCCCCC(=O)O)OC(OC6C(CSCCCCCC(=O)O)OC(OC7C(CSCCCCCC(=O)O)OC(OC8C(CSCCCCCC(=O)O)OC(OC1C(O)C2O)C(O)C8O)C(O)C7O)C(O)C6O)C(O)C5O)C(O)C4O)C(O)C3O (centres unmarked) [OKL-1109] | small effects |  |  | marginal or no effects | marginal or no effects | marginal or no effects | marginal or no effects |  | 
10 | O=C(O)CCCCCSCC1OC2OC3C(CO)OC(OC4C(CO)OC(OC5C(CO)OC(OC6C(CO)OC(OC7C(CO)OC(OC8C(CO)OC(OC9C(CO)OC(OC1C(O)C2O)C(O)C9O)C(O)C8O)C(O)C7O)C(O)C6O)C(O)C5O)C(O)C4O)C(O)C3O (centres unmarked) [OKL-1110] | very potent procoagulant effect |  |  | fully counteracted | strongly antagonized | fully counteracted | fully counteracted |  | 
11 | OCCCSCC1OC2OC3C(CSCCCO)OC(OC4C(CSCCCO)OC(OC5C(CSCCCO)OC(OC6C(CSCCCO)OC(OC7C(CSCCCO)OC(OC8C(CSCCCO)OC(OC9C(CSCCCO)OC(OC1C(O)C2O)C(O)C9O)C(O)C8O)C(O)C7O)C(O)C6O)C(O)C5O)C(O)C4O)C(O)C3O (centres unmarked) [OKL-1146] | very strong procoagulant effects |  |  | restoration of thrombin generation to levels far above that of non-anticoagulated plasma | restoration of thrombin generation to levels far above that of non-anticoagulated plasma | restoration of thrombin generation to levels far above that of non-anticoagulated plasma | restoration of thrombin generation to levels far above that of non-anticoagulated plasma | considerably shorter | largely increased
12 | O=C(O)CCSCC1OC2OC3C(CSCCC(=O)O)OC(OC4C(CSCCC(=O)O)OC(OC5C(CSCCC(=O)O)OC(OC6C(CSCCC(=O)O)OC(OC7C(CSCCC(=O)O)OC(OC8C(CSCCC(=O)O)OC(OC9C(CSCCC(=O)O)OC(OC1C(O)C2O)C(O)C9O)C(O)C8O)C(O)C7O)C(O)C6O)C(O)C5O)C(O)C4O)C(O)C3O (centres unmarked) [OKL-1170, reference compound] | did not show procoagulant activity | No | did not show procoagulant activity |  |  |  |  |  | 
13 | O=C(O)CCCCSCC1OC2OC3C(CSCCCCC(=O)O)OC(OC4C(CSCCCCC(=O)O)OC(OC5C(CSCCCCC(=O)O)OC(OC6C(CSCCCCC(=O)O)OC(OC7C(CSCCCCC(=O)O)OC(OC8C(CSCCCCC(=O)O)OC(OC1C(O)C2O)C(O)C8O)C(O)C7O)C(O)C6O)C(O)C5O)C(O)C4O)C(O)C3O (centres unmarked) [OKL-1178] | procoagulant activity |  |  |  |  |  |  |  | 
14 | O=C(O)CCCCCCSCC1OC2OC3C(CSCCCCCCC(=O)O)OC(OC4C(CSCCCCCCC(=O)O)OC(OC5C(CSCCCCCCC(=O)O)OC(OC6C(CSCCCCCCC(=O)O)OC(OC7C(CSCCCCCCC(=O)O)OC(OC8C(CSCCCCCCC(=O)O)OC(OC1C(O)C2O)C(O)C8O)C(O)C7O)C(O)C6O)C(O)C5O)C(O)C4O)C(O)C3O (centres unmarked) [OKL-1179] | procoagulant activity |  |  |  |  |  |  |  | 
